Key:
Rattus norvegicus = test: In vivo hypocholesterolemic activity was measured in an acute, cholesterol-fed rat model (APCC) at 30 mg/kg dose.; assay type: functional
O-acyltransferase = O-acyltransferase (Oryctolagus cuniculus, UniProt G1SFD9); test: In vitro Acyl coenzyme A:cholesterol acyltransferase inhibitory activity (IAI) was determined by measuring the incorporation of [1-14C]oleolyl-CoA into cholesterol esters by intestinal microsomes isolated from cholesterol-fed rabbits; parameters: species or system Intestine
Sequence of O-acyltransferase (G1SFD9 1-524): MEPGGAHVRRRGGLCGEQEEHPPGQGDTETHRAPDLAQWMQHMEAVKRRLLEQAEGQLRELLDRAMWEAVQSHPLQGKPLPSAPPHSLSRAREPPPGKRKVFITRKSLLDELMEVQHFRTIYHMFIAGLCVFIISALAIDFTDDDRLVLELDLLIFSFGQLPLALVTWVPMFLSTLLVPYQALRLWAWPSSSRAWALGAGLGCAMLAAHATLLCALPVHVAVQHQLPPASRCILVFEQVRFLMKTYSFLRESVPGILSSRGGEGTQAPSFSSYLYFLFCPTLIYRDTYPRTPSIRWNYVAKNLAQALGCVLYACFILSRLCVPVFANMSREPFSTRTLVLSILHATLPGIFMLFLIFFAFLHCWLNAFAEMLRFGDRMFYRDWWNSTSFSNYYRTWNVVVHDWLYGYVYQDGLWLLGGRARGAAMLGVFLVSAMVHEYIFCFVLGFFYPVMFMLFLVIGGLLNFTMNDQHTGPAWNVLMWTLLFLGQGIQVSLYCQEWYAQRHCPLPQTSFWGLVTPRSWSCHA

| Compound | Delta TC (Rattus norvegicus) [%] | IC50 (O-acyltransferase) [nM] |
| --- | --- | --- |
| CCCCC[C@H](C)OC(=O)NC(=O)Oc1c(C(C)C)cccc1C(C)C | -25 | 98 |
| CCCCC[C@@H](C)OC(=O)NC(=O)Oc1c(C(C)C)cccc1C(C)C | <-49 | 130 |
| CCCCCCCCCCCCCCC(C)OC(=O)NC(=O)Nc1c(C(C)C)cccc1C(C)C (configuration not stated) | <-26 | 6800 |
| CC(C)c1cccc(C(C)C)c1NC(=O)NC(=O)NC(c1ccccc1)c1ccccc1 | 4 | – |
| CCCCCCCCCCCCC(C)OC(=O)NC(=O)Nc1c(C(C)C)cccc1C(C)C (configuration not stated) | <-33 | 46 |
| CC(C)c1cccc(C(C)C)c1OC(=O)NC(=O)SCCN1CCOCC1 | <-33 | 900 |
| CC(C)c1cccc(C(C)C)c1NC(=O)NC(=O)N(Cc1ccccc1)C(C)C | <-22 | 750 |
| CC(C)c1cccc(C(C)C)c1NC(=O)NC(=O)N(c1ccccc1)c1ccccc1 | <-49 | 340 |
| CC(C)c1cccc(C(C)C)c1OC(=O)NC(=O)SCCc1ccccc1 | -30 | 880 |
| CCCCCCCCCCOC(=O)NC(=O)Oc1c(C(C)C)cccc1C(C)C | <-44 | 74 |
| CC(C)c1cccc(C(C)C)c1NC(=O)NC(=O)N1c2ccccc2Cc2ccccc21 | -18 | 890 |
| O=C(NC(=O)Oc1c(-c2ccccc2)cccc1-c1ccccc1)Oc1c(-c2ccccc2)cccc1-c1ccccc1 | 0 | 230 |
| CCCCCCCCN(CCCCCCCC)C(=O)NC(=O)Nc1c(C(C)C)cccc1C(C)C | 3 | 350 |
| CC(C)c1cccc(C(C)C)c1NC(=O)NC(=O)N1CCCC1 | -7 | – |
| CCCCCCCCCCCCOC(=O)NC(=O)Sc1c(C(C)C)cccc1C(C)C | -4 | – |
| CC(C)c1cccc(C(C)C)c1OC(=O)NC(=O)Sc1c(C(C)C)cccc1C(C)C | <-20 | 3200 |
| CC(C)c1cccc(C(C)C)c1NC(=O)NC(=O)OC(c1ccccc1)c1ccccc1 | -3 | 7800 |
| CC(C)c1cccc(C(C)C)c1OC(=O)NC(=O)SCc1ccccc1 | <-43 | 440 |
| COC(=O)C(OC(=O)NC(=O)Oc1c(C(C)C)cccc1C(C)C)c1ccccc1 (configuration not stated) | -3 | 940 |
| CCCCN(CCCC)C(=O)NC(=O)Nc1c(C(C)C)cccc1C(C)C | <-30 | 250 |
| CCCCCCCCCCC(C)(C)COC(=O)NC(=O)Oc1c(C(C)C)cccc1C(C)C | <-72 | 20 |
| CC(C)c1cccc(C(C)C)c1OC(=O)NC(=O)OC(c1ccccc1)c1ccccc1 | <-44 | 350 |
| CCCCCCCCCCCCCCCCOC(=O)NC(=O)Oc1c(C(C)C)cccc1C(C)C | <-70 | – |
| CCCCCCCCCCCCCCCCCCOC(=O)NC(=O)Oc1c(C(C)C)cccc1C(C)C | <-35 | 1000 |
| CCCCCCCCCCCCCOC(=O)NC(=O)Oc1c(C(C)C)cccc1C(C)C | <-69 | 9 |
| CCCCCC(C)OC(=O)NC(=O)Nc1c(C(C)C)cccc1C(C)C (configuration not stated) | <-22 | 1060 |

| Compound | Delta TC (Rattus norvegicus) [%] | IC50 (O-acyltransferase) [nM] |
| --- | --- | --- |
| CCCCCCCCCCCSC(=O)NC(=O)Oc1c(C(C)C)cccc1C(C)C | <-54 | 210 |
| CCCCCCCCC(C)OC(=O)NC(=O)Nc1c(C(C)C)cccc1C(C)C (configuration not stated) | <-22 | 750 |
| CCCCCCCCCCCCOC(=O)NC(=O)Nc1c(C(C)C)cccc1C(C)C | <-38 | 120 |
| CC(C)c1cccc(C(C)C)c1NC(=O)NC(=O)Oc1c(C(C)C)cccc1C(C)C | <-25 | 980 |
| CCCCCCCCSC(=O)NC(=O)Oc1c(C(C)C)cccc1C(C)C | <-63 | 160 |
| CC(C)c1cccc(C(C)C)c1OC(=O)NC(=O)Oc1c(C(C)C)cccc1C(C)C | -24 | 110 |
| CCCCCCCCCCCOC(=O)NC(=O)Oc1c(C(C)C)cccc1C(C)C | <-65 | 140 |
| CCCCCCCCCCCCCCN(C)C(=O)NC(=O)Nc1c(C(C)C)cccc1C(C)C | – | 1700 |
| CC(C)c1cccc(C(C)C)c1OC(=O)NC(=O)Oc1cccc2ccccc12 | – | 3700 |
| CCCCCCCCCCCCSC(=O)NC(=O)Oc1c(C(C)C)cccc1C(C)C | <-63 | 16 |
| Cc1cccc(C)c1OC(=O)NC(=O)Oc1c(C)cccc1C | 4 | > 5000 |
| CCCCCCCCCCC(C)OC(=O)NC(=O)Nc1c(C(C)C)cccc1C(C)C (configuration not stated) | <-26 | – |
| CCCCCCCCCCSC(=O)NC(=O)Oc1c(C(C)C)cccc1C(C)C | <-52 | 130 |
| CCCCCCCCOC(=O)NC(=O)Oc1c(C(C)C)cccc1C(C)C | <-47 | 250 |
| CC(C)c1cccc(C(C)C)c1NC(=O)NC(=O)N1c2ccccc2Sc2ccccc21 | -6 | 1900 |
| CCCCCCCCCCCCC(C)(C)OC(=O)NC(=O)Oc1c(C(C)C)cccc1C(C)C | <-51 | 21 |
| CC(C)c1cccc(C(C)C)c1OC(=O)NC(=O)SCc1ccc(Cl)cc1 | <-50 | 160 |
| CC(C)c1cccc(C(C)C)c1OC(=O)NC(=O)Oc1ccccc1 | <-29 | 1800 |
| CC(C)c1cccc(C(C)C)c1NC(=O)NC(=O)N(Cc1ccccc1)Cc1ccccc1 | -14 | 1040 |
| CC(C)c1cccc(C(C)C)c1OC(=O)NC(=O)SCCCc1ccccc1 | <-63 | 69 |
| CCCCCCOC(=O)NC(=O)Oc1c(C(C)C)cccc1C(C)C | <-38 | 53 |
| CCCCCCCCCCCCSC(=O)NC(=O)Sc1c(C(C)C)cccc1C(C)C | <-36 | > 5000 |
| CC(C)c1cccc(C(C)C)c1OC(=O)NC(=O)OCCCc1ccccc1 | -24 | 660 |
| CC(C)c1cccc(C(C)C)c1OC(=O)NC(=O)Sc1ccccc1 | <-37 | > 5000 |
| CC(C)c1cccc(C(C)C)c1NC(=O)NC(=O)Nc1c(C(C)C)cccc1C(C)C | 0 | – |
| CCCCCCCC(C)OC(=O)NC(=O)Nc1c(C(C)C)cccc1C(C)C (configuration not stated) | <-24 | 390 |

| Compound | Delta TC (Rattus norvegicus) [%] | IC50 (O-acyltransferase) [nM] |
| --- | --- | --- |
| CC(C)(C)c1cccc(C(C)(C)C)c1OC(=O)NC(=O)Oc1c(C(C)(C)C)cccc1C(C)(C)C | <-23 | 1200 |
| CC(C)c1cccc(C(C)C)c1OC(=O)NC(=O)N(c1ccccc1)c1ccccc1 | -3 | 170 |
| CCCCCCCCCCCCCCOC(=O)NC(=O)Oc1c(C(C)C)cccc1C(C)C | <-59 | 10 |
| CC(C)c1cccc(C(C)C)c1NC(=O)NC(=O)N1CCC(c2ccccc2)CC1 | 3 | 890 |
| CCCCCCCCCCCCCCOC(=O)NC(=O)Oc1c(OC)cc(OC)cc1OC | -15 | > 5000 |
| CC(C)c1cccc(C(C)C)c1OC(=O)NC(=O)SCc1ccco1 | <-51 | 470 |
| CC(C)c1cccc(C(C)C)c1NC(=O)N(C)C(=O)N(c1ccccc1)c1ccccc1 | – | 440 |
| CCN(CC)C(=O)NC(=O)Nc1c(C(C)C)cccc1C(C)C | -16 | – |
| CC(C)c1cccc(C(C)C)c1OC(=O)NC(=O)OCc1ccccc1 | -23 | 77 |
| CCCCC(C)(C)OC(=O)NC(=O)Oc1c(C(C)C)cccc1C(C)C | -29 | 64 |
| CCCCCCCCCCCCC(C)(C)OC(=O)NC(=O)Nc1c(C(C)C)cccc1C(C)C | – | 65 |
| CCCCCCCCCCCCOC(=O)NC(=O)Oc1c(C(C)C)cccc1C(C)C | <-52 | 21 |
| Cc1cccc(C)c1SC(=O)NC(=O)Sc1c(C)cccc1C | -13 | > 5000 |
| CC(C)c1cccc(C(C)C)c1OC(=O)NC(=O)NC(c1ccccc1)c1ccccc1 | -4 | – |
| CCCCCCCCCCCCSC(=O)NC(=O)Oc1c(OC)cc(OC)cc1OC | <-59 | 250 |
| CC(C)c1cccc(C(C)C)c1OC(=O)NC(=O)SC1CCCCC1 | <-63 | 97 |
| CCCCCCCCCCCCC(C)SC(=O)NC(=O)Oc1c(C(C)C)cccc1C(C)C (racemic) | <-60 | 8 |
| CCCCCCCCCCCCC(C)OC(=O)NC(=O)Oc1c(C(C)C)cccc1C(C)C (racemic) | <-50 | 17 |
| CCCCCCCC(C)OC(=O)NC(=O)Oc1c(C(C)C)cccc1C(C)C (racemic) | <-56 | 97 |
| CCCCCCCCC(C)OC(=O)NC(=O)Oc1c(C(C)C)cccc1C(C)C (racemic) | <-54 | 270 |
| CCCCCCCCCCC(C)OC(=O)NC(=O)Oc1c(C(C)C)cccc1C(C)C (racemic) | <-66 | 49 |
| CCCCCCCCCCCCCCC(C)OC(=O)NC(=O)Oc1c(C(C)C)cccc1C(C)C (racemic) | <-43 | 58 |
| CCCCCC(C)OC(=O)NC(=O)Oc1c(C(C)C)cccc1C(C)C (racemic) | <-60 | 102 |
| CCCCCCCCCCCCC(C)OC(=O)NC(=O)Oc1c(F)cccc1F (racemic) | <-35 | > 1000 |
| CCCCCCCCCCCCC(C)OC(=O)N(C)C(=O)Oc1c(C(C)C)cccc1C(C)C (racemic) | -8 | > 1000 |

Reference: ChEMBL document CHEMBL1127594, “Inhibitors of acyl-CoA:cholesterol O-acyltransferase. 11. Structure-activity relationships of several series of compounds derived from N-(chlorocarbonyl) isocyanate” (J Med Chem, 1994)
